Test results: the NIST ThermoML archive (doi:10.1021/je200415u)
Numbers after ± are expanded uncertainties.

Assay: mn = molality of the nth substance listed, in mol/kg
Settings: 101 kPa, Liquid, METLER TOLEDO SevenEasy conductivity meter

For `O=[N+]([O-])[O-].O=[N+]([O-])[O-].O=[N+]([O-])[O-].[Ce+3]` [cerium nitrate] + O, which electrical conductivity (293.15 K, m1 = 0.5112) is on record?
The electrical conductivity was 6.618 ± 0.066 S/m.

What about the electrical conductivity (293.15 K, m1 = 1.031) of the same compound?
Its electrical conductivity is 8.513 ± 0.085 S/m.

And the electrical conductivity (293.15 K, m1 = 1.555)?
Its electrical conductivity is 8.217 ± 0.082 S/m.

And the electrical conductivity (293.15 K, m1 = 1.997)?
Its electrical conductivity is 7.244 ± 0.072 S/m.

And the electrical conductivity (293.15 K, m1 = 3.131)?
The electrical conductivity was 4.309 ± 0.043 S/m.

And the electrical conductivity (293.15 K, m1 = 3.968)?
The electrical conductivity was 2.67 ± 0.027 S/m.

What about the electrical conductivity (293.15 K, m1 = 4.462) of the same compound?
The electrical conductivity was 1.912 ± 0.019 S/m.

And the electrical conductivity (298.15 K, m1 = 0.5112)?
The electrical conductivity was 7.4 ± 0.074 S/m.

And the electrical conductivity (298.15 K, m1 = 1.031)?
The electrical conductivity was 9.446 ± 0.094 S/m.

And the electrical conductivity (298.15 K, m1 = 1.555)?
Its electrical conductivity is 9.15 ± 0.092 S/m.

What about the electrical conductivity (298.15 K, m1 = 1.997) of the same compound?
The electrical conductivity was 8.103 ± 0.081 S/m.

What about the electrical conductivity (298.15 K, m1 = 3.131) of the same compound?
Its electrical conductivity is 4.9 ± 0.049 S/m.

What about the electrical conductivity (298.15 K, m1 = 3.968) of the same compound?
The electrical conductivity was 3.1 ± 0.031 S/m.

What about the electrical conductivity (298.15 K, m1 = 4.462) of the same compound?
The electrical conductivity was 2.244 ± 0.022 S/m.

What about the electrical conductivity (308.15 K, m1 = 0.5112) of the same compound?
The electrical conductivity was 8.78 ± 0.088 S/m.

And the electrical conductivity (308.15 K, m1 = 1.031)?
The electrical conductivity was 11.24 ± 0.11 S/m.

And the electrical conductivity (308.15 K, m1 = 1.555)?
The electrical conductivity was 10.9 ± 0.11 S/m.

What about the electrical conductivity (308.15 K, m1 = 1.997) of the same compound?
The electrical conductivity was 9.78 ± 0.098 S/m.

And the electrical conductivity (308.15 K, m1 = 3.131)?
The electrical conductivity was 6.136 ± 0.061 S/m.

What about the electrical conductivity (308.15 K, m1 = 3.968) of the same compound?
Its electrical conductivity is 4.018 ± 0.04 S/m.

What about the electrical conductivity (308.15 K, m1 = 4.462) of the same compound?
Its electrical conductivity is 2.96 ± 0.03 S/m.

What does the source list for `O=[N+]([O-])[O-].O=[N+]([O-])[O-].O=[N+]([O-])[O-].[Nd+3]` [neodymium(III) nitrate] + O?
electrical conductivity (293.15 K, m1 = 0.522): 6.78 ± 0.068 S/m; electrical conductivity (293.15 K, m1 = 1.021): 8.78 ± 0.088 S/m; electrical conductivity (293.15 K, m1 = 1.555): 8.65 ± 0.087 S/m; electrical conductivity (293.15 K, m1 = 2.093): 7.44 ± 0.074 S/m; electrical conductivity (293.15 K, m1 = 3.086): 4.708 ± 0.047 S/m; electrical conductivity (293.15 K, m1 = 4.124): 2.521 ± 0.025 S/m; electrical conductivity (293.15 K, m1 = 4.297): 2.219 ± 0.022 S/m; electrical conductivity (298.15 K, m1 = 0.522): 7.48 ± 0.075 S/m; electrical conductivity (298.15 K, m1 = 1.021): 9.66 ± 0.097 S/m; electrical conductivity (298.15 K, m1 = 1.555): 9.545 ± 0.095 S/m; electrical conductivity (298.15 K, m1 = 2.093): 8.27 ± 0.083 S/m; electrical conductivity (298.15 K, m1 = 3.086): 5.329 ± 0.053 S/m; electrical conductivity (298.15 K, m1 = 4.124): 2.931 ± 0.029 S/m; electrical conductivity (298.15 K, m1 = 4.297): 2.623 ± 0.026 S/m; electrical conductivity (308.15 K, m1 = 0.522): 8.97 ± 0.09 S/m; electrical conductivity (308.15 K, m1 = 1.021): 11.5 ± 0.12 S/m; electrical conductivity (308.15 K, m1 = 1.555): 11.44 ± 0.11 S/m; electrical conductivity (308.15 K, m1 = 2.093): 10.01 ± 0.1 S/m; electrical conductivity (308.15 K, m1 = 3.086): 6.65 ± 0.067 S/m; electrical conductivity (308.15 K, m1 = 4.124): 3.821 ± 0.038 S/m; electrical conductivity (308.15 K, m1 = 4.297): 3.422 ± 0.034 S/m

Which electrical conductivity (293.15 K, m1 = 0.4989) does the source give for `O=[N+]([O-])[O-].O=[N+]([O-])[O-].O=[N+]([O-])[O-].[Y+3]` [yttrium nitrate] + O here?
Its electrical conductivity is 7.202 ± 0.072 S/m.

And the electrical conductivity (293.15 K, m1 = 0.9965)?
Its electrical conductivity is 10.03 ± 0.1 S/m.

What about the electrical conductivity (293.15 K, m1 = 1.497) of the same compound?
Its electrical conductivity is 10.36 ± 0.1 S/m.

What about the electrical conductivity (293.15 K, m1 = 1.982) of the same compound?
Its electrical conductivity is 9.433 ± 0.094 S/m.

And the electrical conductivity (293.15 K, m1 = 2.947)?
The electrical conductivity was 6.35 ± 0.064 S/m.

And the electrical conductivity (293.15 K, m1 = 3.945)?
The electrical conductivity was 3.68 ± 0.037 S/m.

What about the electrical conductivity (293.15 K, m1 = 4.957) of the same compound?
The electrical conductivity was 1.89 ± 0.019 S/m.

What about the electrical conductivity (298.15 K, m1 = 0.4989) of the same compound?
Its electrical conductivity is 8.339 ± 0.083 S/m.

What about the electrical conductivity (298.15 K, m1 = 0.9965) of the same compound?
The electrical conductivity was 11.6 ± 0.12 S/m.

What about the electrical conductivity (298.15 K, m1 = 1.497) of the same compound?
The electrical conductivity was 12 ± 0.12 S/m.

What about the electrical conductivity (298.15 K, m1 = 1.982) of the same compound?
Its electrical conductivity is 10.9 ± 0.11 S/m.

What about the electrical conductivity (298.15 K, m1 = 2.947) of the same compound?
The electrical conductivity was 7.421 ± 0.074 S/m.

And the electrical conductivity (298.15 K, m1 = 3.945)?
The electrical conductivity was 4.4 ± 0.044 S/m.

And the electrical conductivity (298.15 K, m1 = 4.957)?
The electrical conductivity was 2.28 ± 0.023 S/m.

What about the electrical conductivity (308.15 K, m1 = 0.4989) of the same compound?
Its electrical conductivity is 9.922 ± 0.099 S/m.

What about the electrical conductivity (308.15 K, m1 = 0.9965) of the same compound?
Its electrical conductivity is 13.7 ± 0.14 S/m.

And the electrical conductivity (308.15 K, m1 = 1.497)?
Its electrical conductivity is 14.17 ± 0.14 S/m.

And the electrical conductivity (308.15 K, m1 = 1.982)?
The electrical conductivity was 13.03 ± 0.13 S/m.

What about the electrical conductivity (308.15 K, m1 = 2.947) of the same compound?
The electrical conductivity was 9.08 ± 0.091 S/m.

And the electrical conductivity (308.15 K, m1 = 3.945)?
Its electrical conductivity is 5.611 ± 0.056 S/m.

What about the electrical conductivity (308.15 K, m1 = 4.957) of the same compound?
Its electrical conductivity is 3.08 ± 0.031 S/m.
